16 compounds from PubChem BioAssay (NCI) can be followed below.

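These data come from cells grown in 96-well plates and exposed to compound for 48 hours at five concentrations. TGI marks complete inhibition of growth.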

The first test concerns HOP-92 NSCLC. The experiment in a line: NCI-60 cell line screen, 48 h.
In the case of `Cc1cc(OCc2nnc3n2N=C(c2cc(F)c(Cl)cc2Cl)/C(=C/c2ccc(Cl)cc2)S3)ccc1Cl`, the TGI came to 45.8 µM.

The next test relates to HT29 colon. The experiment in a line: NCI-60 cell line screen, 48 h.
Take `N#C/C(N)=C(\C#N)NC=NCc1ccccc1`: the TGI is above 100 µM.
Still for that read-out and setting: the same measure for `Cc1c(O)c(C)c2c(C)cn(C(=O)C(C)(C)C)c2c1C`: 42.6 µM; for `COc1ccc(/C=N/n2c(-c3ccccc3)n[nH]c2=O)cc1`: above 100 µM; for `O=C1C[C@H]2[C@@H](O1)[C@@H](O)CN1C(=O)c3ccccc3[C@H]21`: above 100 µM.
The compound `O=P(O)(Cc1ccccc1)c1ccccc1-c1ccccc1` displayed a TGI above 100 µM.
For `CCO/C=N/NC(=O)CSc1nc2ccc(I)cc2c(=O)n1Cc1ccccc1`, the TGI was above 100 µM.
On to `CSc1nncc2[nH]c(C)nc12`, for which the TGI was above 100 µM.
Still for that read-out and setting: the same measure for `CCOC(=O)c1ccc(C(=O)/C(C#N)=C2\CCCN2C)[nH]1`: above 100 µM; for `COc1ccc(C(OC(C)=O)C2C(=C(C#N)C#N)c3ccccc3C2=C(C#N)C#N)cc1` (centres undefined): 95.1 µM.
On the same count and under the same terms, with `Oc1ccc(-c2nc(-c3ccc(F)cc3)c(-c3ccc4ccccc4n3)[nH]2)cc1` the figure was 20.2 µM; with `C[C@@]12CCC3C1C=C1C(=O)c4cc(O)ccc4C(=O)[C@]1(O2)[C@@]3(C)C=O`, 20.9 µM; with `COC(=O)c1c(O)ccc2c1c1c(n2Cc2ccc(Cl)cc2Cl)C(=O)c2ccccc2C1`, above 100 µM.
Consider `Cc1ccc(C(=O)N/N=C(\N=Nc2ccccc2[N+](=O)[O-])c2ccc(N(C)C)cc2)cc1`, for which the TGI was above 100 µM.
With `CC(C)C1=C(Cc2ccccc2)C(=O)O/C1=C\c1cc(Cl)c(O)c(Cl)c1`, the TGI came out at 32.2 µM.
For the compound `Cc1cc(OCc2nnc3n2N=C(c2cc(F)c(Cl)cc2Cl)/C(=C/c2ccc(Cl)cc2)S3)ccc1Cl`, the TGI was 52.5 µM.

A further test concerns LOX IMVI melanoma. The experiment in a line: NCI-60 cell line screen, 48 h.
For the compound `N#C/C(N)=C(\C#N)NC=NCc1ccccc1`, the TGI is above 100 µM.
For the compound `Cc1c(O)c(C)c2c(C)cn(C(=O)C(C)(C)C)c2c1C`, the TGI was determined as 92.2 µM.
On the same count and under the same terms, with `CN1C(=O)C(CC=O)(C(C)(C)C)c2ccccc21` (centres undefined) the figure was above 100 µM.
Same read-out and setting: with `O=C1C[C@H]2[C@@H](O1)[C@@H](O)CN1C(=O)c3ccccc3[C@H]21` the figure was above 100 µM; with `O=P(O)(Cc1ccccc1)c1ccccc1-c1ccccc1`, above 100 µM.
The compound `CCO/C=N/NC(=O)CSc1nc2ccc(I)cc2c(=O)n1Cc1ccccc1` gave a TGI above 100 µM.
Still for that read-out and setting: the same measure for `CSc1nncc2[nH]c(C)nc12`: above 100 µM; for `CCOC(=O)c1ccc(C(=O)/C(C#N)=C2\CCCN2C)[nH]1`: above 100 µM; for `COc1ccc(C(OC(C)=O)C2C(=C(C#N)C#N)c3ccccc3C2=C(C#N)C#N)cc1` (centres undefined): above 100 µM.
Same read-out and setting: with `Oc1ccc(-c2nc(-c3ccc(F)cc3)c(-c3ccc4ccccc4n3)[nH]2)cc1` the figure was 27.9 µM; with `C[C@@]12CCC3C1C=C1C(=O)c4cc(O)ccc4C(=O)[C@]1(O2)[C@@]3(C)C=O`, 11.2 µM.
Regarding `COC(=O)c1c(O)ccc2c1c1c(n2Cc2ccc(Cl)cc2Cl)C(=O)c2ccccc2C1`, the TGI worked out at 61.9 µM.
Still for that read-out and setting: with `Cc1ccc(C(=O)N/N=C(\N=Nc2ccccc2[N+](=O)[O-])c2ccc(N(C)C)cc2)cc1` the figure was above 100 µM; with `CC(C)C1=C(Cc2ccccc2)C(=O)O/C1=C\c1cc(Cl)c(O)c(Cl)c1`, 34.8 µM.
Same read-out and setting: the same measure for `Cc1cc(OCc2nnc3n2N=C(c2cc(F)c(Cl)cc2Cl)/C(=C/c2ccc(Cl)cc2)S3)ccc1Cl`: 50.1 µM.

The test system of another test is MALME-3M melanoma. Put plainly: NCI-60 cell line screen, 48 h.
`N#C/C(N)=C(\C#N)NC=NCc1ccccc1` had a TGI above 100 µM.
Same read-out and setting: with `COc1ccc(/C=N/n2c(-c3ccccc3)n[nH]c2=O)cc1` the figure was above 100 µM; with `O=C1C[C@H]2[C@@H](O1)[C@@H](O)CN1C(=O)c3ccccc3[C@H]21`, above 100 µM; with `O=P(O)(Cc1ccccc1)c1ccccc1-c1ccccc1`, above 100 µM.
Still for that read-out and setting: with `CSc1nncc2[nH]c(C)nc12` the figure was above 100 µM; with `CCOC(=O)c1ccc(C(=O)/C(C#N)=C2\CCCN2C)[nH]1`, above 100 µM.
In the case of `Oc1ccc(-c2nc(-c3ccc(F)cc3)c(-c3ccc4ccccc4n3)[nH]2)cc1`, the TGI worked out at 28.3 µM.
In turn, `COC(=O)c1c(O)ccc2c1c1c(n2Cc2ccc(Cl)cc2Cl)C(=O)c2ccccc2C1` registered a TGI above 100 µM.
`CC(C)C1=C(Cc2ccccc2)C(=O)O/C1=C\c1cc(Cl)c(O)c(Cl)c1` returned a TGI of 36.6 µM.

The test system of another test is MCF7 breast. The experiment in a line: NCI-60 cell line screen, 48 h.
For `N#C/C(N)=C(\C#N)NC=NCc1ccccc1`, the TGI was above 100 µM.
As to `Cc1c(O)c(C)c2c(C)cn(C(=O)C(C)(C)C)c2c1C`, the TGI was found to be 20.3 µM.
In turn, `CN1C(=O)C(CC=O)(C(C)(C)C)c2ccccc21` (centres undefined) gave a TGI above 100 µM.
Still for that read-out and setting: with `COc1ccc(/C=N/n2c(-c3ccccc3)n[nH]c2=O)cc1` the figure was above 100 µM; with `O=C1C[C@H]2[C@@H](O1)[C@@H](O)CN1C(=O)c3ccccc3[C@H]21`, above 100 µM; with `O=P(O)(Cc1ccccc1)c1ccccc1-c1ccccc1`, above 100 µM.
`CCO/C=N/NC(=O)CSc1nc2ccc(I)cc2c(=O)n1Cc1ccccc1` displayed a TGI above 100 µM.
On to `CSc1nncc2[nH]c(C)nc12`, for which the TGI is above 100 µM.
Same read-out and setting: the same measure for `CCOC(=O)c1ccc(C(=O)/C(C#N)=C2\CCCN2C)[nH]1`: above 100 µM.
The same measure, in the same setting: the same measure for `COc1ccc(C(OC(C)=O)C2C(=C(C#N)C#N)c3ccccc3C2=C(C#N)C#N)cc1` (centres undefined): above 100 µM.
Still for that read-out and setting: with `Oc1ccc(-c2nc(-c3ccc(F)cc3)c(-c3ccc4ccccc4n3)[nH]2)cc1` the figure was 18.7 µM; with `C[C@@]12CCC3C1C=C1C(=O)c4cc(O)ccc4C(=O)[C@]1(O2)[C@@]3(C)C=O`, 11.6 µM; with `COC(=O)c1c(O)ccc2c1c1c(n2Cc2ccc(Cl)cc2Cl)C(=O)c2ccccc2C1`, 89.9 µM.
On to `Cc1ccc(C(=O)N/N=C(\N=Nc2ccccc2[N+](=O)[O-])c2ccc(N(C)C)cc2)cc1`, for which the TGI is above 100 µM.
Take `CC(C)C1=C(Cc2ccccc2)C(=O)O/C1=C\c1cc(Cl)c(O)c(Cl)c1`: the TGI was 83.4 µM.
Same read-out and setting: with `Cc1cc(OCc2nnc3n2N=C(c2cc(F)c(Cl)cc2Cl)/C(=C/c2ccc(Cl)cc2)S3)ccc1Cl` the figure was 87.9 µM.

The next test deals with MDA-MB-231 breast. Put plainly: NCI-60 cell line screen, 48 h.
On to `N#C/C(N)=C(\C#N)NC=NCc1ccccc1`, for which the TGI was above 100 µM.
Compound `Cc1c(O)c(C)c2c(C)cn(C(=O)C(C)(C)C)c2c1C` gave a TGI of 28.5 µM.
For the compound `CN1C(=O)C(CC=O)(C(C)(C)C)c2ccccc21` (centres undefined), the TGI was above 100 µM.
For `COc1ccc(/C=N/n2c(-c3ccccc3)n[nH]c2=O)cc1`, the TGI is above 100 µM.
Still for that read-out and setting: the same measure for `O=C1C[C@H]2[C@@H](O1)[C@@H](O)CN1C(=O)c3ccccc3[C@H]21`: above 100 µM; for `O=P(O)(Cc1ccccc1)c1ccccc1-c1ccccc1`: above 100 µM.
With `CCO/C=N/NC(=O)CSc1nc2ccc(I)cc2c(=O)n1Cc1ccccc1`, the TGI is above 100 µM.
`CSc1nncc2[nH]c(C)nc12` returned a TGI above 100 µM.
On the same count and under the same terms, with `CCOC(=O)c1ccc(C(=O)/C(C#N)=C2\CCCN2C)[nH]1` the figure was above 100 µM.
For `COc1ccc(C(OC(C)=O)C2C(=C(C#N)C#N)c3ccccc3C2=C(C#N)C#N)cc1` (centres undefined), the TGI was above 100 µM.
`Oc1ccc(-c2nc(-c3ccc(F)cc3)c(-c3ccc4ccccc4n3)[nH]2)cc1`: the TGI turned out to be 41.4 µM.
The same measure, in the same setting: the same measure for `C[C@@]12CCC3C1C=C1C(=O)c4cc(O)ccc4C(=O)[C@]1(O2)[C@@]3(C)C=O`: 19.3 µM; for `COC(=O)c1c(O)ccc2c1c1c(n2Cc2ccc(Cl)cc2Cl)C(=O)c2ccccc2C1`: above 100 µM.
